Data reported in patent US6489341B1 (Sepracor Inc., priority 1999, dated 2002).
Where two headings read alike, the source gives them in different places.

Experiments:
[1] = target: T1, human recombinant dopamine D4 receptor (Homo sapiens, UniProt P21917); experiment: Binding affinity at dopamine D4 receptor; conditions: for Ki: calculated inhibition constant, in parentheses; for IC50: concentration required to inhibit 50% specific binding
T1 construct: expressed in transfected cells
T1 sequence (P21917 1-419): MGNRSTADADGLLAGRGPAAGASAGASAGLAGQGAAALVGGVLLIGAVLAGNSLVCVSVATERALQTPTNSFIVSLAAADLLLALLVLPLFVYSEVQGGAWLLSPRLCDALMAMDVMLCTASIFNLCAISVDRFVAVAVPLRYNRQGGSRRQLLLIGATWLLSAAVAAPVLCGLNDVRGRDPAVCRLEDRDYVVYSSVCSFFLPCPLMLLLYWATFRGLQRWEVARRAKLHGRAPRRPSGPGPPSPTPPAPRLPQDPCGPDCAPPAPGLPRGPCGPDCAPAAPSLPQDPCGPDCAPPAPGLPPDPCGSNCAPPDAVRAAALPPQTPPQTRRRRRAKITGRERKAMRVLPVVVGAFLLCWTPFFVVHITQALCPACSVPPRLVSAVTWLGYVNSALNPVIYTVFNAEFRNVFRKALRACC

[2] = target: T2, human recombinant dopamine D2 receptor (Homo sapiens, UniProt P14416); experiment: Binding affinity at dopamine D2 receptor; conditions: for Ki: calculated inhibition constant, in parentheses; for IC50: concentration required to inhibit 50% specific binding
T2 construct: expressed in transfected cells

[3] = target: non-selective α1 receptor from rat cerebral cortex; experiment: Binding affinity at non-selective α1 receptor; conditions: for Ki: calculated inhibition constant, in parentheses; for IC50: concentration required to inhibit 50% specific binding
[4] = target: T3, human recombinant serotonin 5-HT2A receptor (Homo sapiens, UniProt P28223); experiment: Binding affinity at serotonin 5-HT2A receptor; conditions: for 5-HT2A Selectivity (D2/5-HT2A): ratio of D2 to 5-HT2A IC50; for selectivity for 5-HT2A receptors versus D2 receptors (in words): conclusion from Table 1
T3 construct: expressed in transfected cells

[5] = calculated inhibition constant, in parentheses, human recombinant, read-out: Ki by Receptor 5-HT2A
[6] = concentration required to inhibit 50% specific binding, human recombinant, read-out: IC50 by Receptor 5-HT2A

T3 sequence (P28223 whole entry): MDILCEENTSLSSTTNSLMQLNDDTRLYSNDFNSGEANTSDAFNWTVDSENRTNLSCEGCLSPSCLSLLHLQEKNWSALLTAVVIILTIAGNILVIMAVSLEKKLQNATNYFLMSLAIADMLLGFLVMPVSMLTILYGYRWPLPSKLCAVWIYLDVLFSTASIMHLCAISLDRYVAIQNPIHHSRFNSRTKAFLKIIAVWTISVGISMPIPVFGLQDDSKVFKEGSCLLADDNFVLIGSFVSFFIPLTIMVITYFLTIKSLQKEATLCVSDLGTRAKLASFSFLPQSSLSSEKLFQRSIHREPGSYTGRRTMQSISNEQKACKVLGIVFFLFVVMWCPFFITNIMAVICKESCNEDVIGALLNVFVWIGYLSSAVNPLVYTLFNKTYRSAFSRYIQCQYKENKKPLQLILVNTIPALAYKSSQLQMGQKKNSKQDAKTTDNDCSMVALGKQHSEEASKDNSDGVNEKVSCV
T2 sequence (P14416 whole entry): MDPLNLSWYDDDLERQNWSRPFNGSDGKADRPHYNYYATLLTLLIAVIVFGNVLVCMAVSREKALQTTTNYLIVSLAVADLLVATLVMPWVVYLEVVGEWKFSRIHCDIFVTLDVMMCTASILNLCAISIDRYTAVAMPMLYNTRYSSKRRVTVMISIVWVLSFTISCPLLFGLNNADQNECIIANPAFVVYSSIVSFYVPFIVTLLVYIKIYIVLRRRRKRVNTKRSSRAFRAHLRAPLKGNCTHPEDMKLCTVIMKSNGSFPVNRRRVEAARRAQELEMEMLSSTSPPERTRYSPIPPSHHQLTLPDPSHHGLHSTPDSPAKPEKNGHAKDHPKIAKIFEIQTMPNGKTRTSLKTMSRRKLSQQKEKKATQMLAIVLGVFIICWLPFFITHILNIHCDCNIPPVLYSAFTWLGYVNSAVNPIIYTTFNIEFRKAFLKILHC

Row | SMILES | Ki [1] [nM] | IC50 [1] [nM] | Ki [2] [nM] | IC50 [2] [nM] | Ki [3] [nM] | IC50 [3] [nM] | IC50 [4] [nM] | Ki [4] [nM] | 5-HT2A Selectivity (D2/5-HT2A) [4] | Ki [4, 5] [nM] | IC50 [4, 6] [nM] | selectivity for 5-HT2A receptors versus D2 receptors (in words) [4]
1 | Fc1ccc(-n2cc(C3=CCNCC3)c3cc(Cl)ccc32)cc1 [Dehydro-Nor] | 116 | 379 | 8.8 | 34 | 28 | 102 | 25 | 16 | 1.4 |  |  | 
2 | O=C1NCCN1CCN1CCC(c2cn(-c3ccc(F)cc3)c3ccc(Cl)cc23)CC1 [Sertindole, 1-[2-[4-[5-chloro-1-(4-fluorophenyl)-1H-indol-3-yl]-1-piperidinyl]ethyl]-2-imidazolidinone, reference compound] |  |  |  |  | 1.7 | 6.2 |  |  |  |  |  | 
3 | COc1cc2nc(N3CCN(C(=O)c4ccco4)CC3)nc(N)c2cc1OC [Prazosin, reference compound] |  |  |  |  | 0.087 | 0.32 |  |  |  |  |  | 
4 | Fc1ccc(-n2cc(C3=CCNCC3)c3cc(Cl)ccc32)cc1 [Nor, 5-chloro-1-(4-fluorophenyl)-3-(1,2,3 6-tetrahydropvridin-4-yl)indole] | 333 | 1090 | 20 | 78 | 13 | 49 |  |  | 4.6 | 11 | 17 | greater selectivity for 5-HT2A receptors than for D2 receptors
5 | O=C1CNC(=O)N1CCN1CCC(c2cn(-c3ccc(F)cc3)c3ccc(Cl)cc23)CC1 [5-Oxo, 1-[2-[4-[5-chloro-1-(4-fluorophenyl)-1H-indol-3-yl]piperidin-1-yl]ethyl]midazolidin-2,5-dione] | 96 | 315 | 11 | 44 | 3.3 | 12 |  |  | 2.4 | 11 | 18 | greater selectivity for 5-HT2A receptors than for D2 receptors
